Columns and labels:
[1] = test system: T cells from HLA A2+ normal donor; test: IFN-γ ELISPOT, T cells stimulated by 9-mer peptide pool-pulsed homologous B cells; assay type: cell-based, human
Description: FIGS. 12A-B. Identification of HLA-A2 T-cell specific peptides using anti-human IFN-γ ELISPOT with T cells from one HLA A2^+ normal donor. (FIG. 12A) T cells, stimulated by peptide pool-pulsed homologous B cells three (3rd T cells) or four (4th T cells) times were reactive with two pools from a HERV-K HLA A2^+9-mer peptide library (pool #1-11 and pool #12-22). NP is no peptide control. (FIG. 12B) Photographs of actual plates for FIG. 12A.
FIGS. 13A-B. Identification of HLA-A2 T cell specific epitopes using anti-human IFN-γ ELISPOT. T cells obtained from PBMC stimulated by peptide pool-pulsed homologous B cells three (3rd T cells) or four (4th T cells) times, were reactive with individual peptides. (FIG. 13A) Image of ELISPOT. (FIG. 13B) The code of peptides evaluated in ELISPOT assays.
FIGS. 14A-C. Summary of number of ELISPOTs from each individual peptide. Numbers of spots detected (pool 1-11, pool 12-22, and pool 23-33) in ELISPOTS with a single peptide are shown. NP contains no peptide (as control). (FIG. 14A) Summary of number of ELISPOTs from each individual peptide including #1, #2, #3, #5, #6, #7, #8, and #9, and peptide pool #1 to #11. (FIG. 14B) Summary of number of ELISPOTs from each individual peptide including #12, #13, #14, #15, #17, #18, #19, #20, #22 and peptide pool #12 to #22. (FIG. 14C) Summary of number of ELISPOTs from each individual peptide including #23, #24, #25, #26, #27, #28, #30, #31, #32, #33, and peptide pool #23 to #33. 4th T cells indicated the T cells had been stimulated with peptide pool 4 times and 3rd T cells indicated the T cells had been stimulated with peptide pool 3 times.
The inventor used epitope mapping to identify responses to HERV-K peptides in breast cancer patients. They chemically synthesized a HERV-K env nine amino acid (9mer) peptide library (33 HLA A2 restricted peptides) and overlapping 15mer peptide library (144 peptides). Preliminary research has identified two pools from the HERV-K env 9mer peptide library that contain potential CD8+ epitopes, using interferon gamma (IFN-γ) enzyme-linked immunosorbent spot (ELISPOT) assay with T cells from one HLA A2^+ normal donor which was stimulated with the 9mer peptide pool-pulsed homologous dendritic cells (DCs).
HLA-2+ patients were identified by flow cytometry using anti-A2 antibody. Activated B cells were cultured from PBMCs stimulated with irradiated 3T3-CD40L-expressing fibroblasts. Normal donor CD8+ T-cell lines were obtained from PBMCs stimulated with autologous activated B cells pulsed with peptide pools (peptides are in 3 pools: #1-11, #12-22, and #23-33); the stimulation was repeated for 3-4 cycles. HERV-K specific T cells generated from normal donor lines were tested for peptide reactivity using IFN-γ ELISPOT assays (FIGS. 12A-B).

[2] = test system: IVS cells; test: IFN-γ ELISPOT with IVS cells (DC pulsed once with HERV-K protein) against MAPs, 9-mer pools or single peptides; assay type: cell-based, human; settings: donor 449731, IVS cells, FIG. 15C
Description: FIGS. 15A-C. ELISPOT was employed to determine the production of IFN-γ in twelve 15-mer small pools. (FIG. 15A) Numbers of spots detected in multiple pools are shown for a breast cancer patient diagnosed with IDC (Acc 30) or a patient diagnosed with teratoma (Acc 32). (FIG. 15B) Numbers of spots detected in multiple pools are shown for a patient diagnosed with left breast minute foci of sugg papillary lesion (967092) or IDC (Acc 31). SP 1-12 represents small peptide pools #1-12. Pool 0 contains no peptides (as control). (FIG. 15C) T cells obtained from PBMC stimulated once with HERV-K-specific pulsed homologous B cells were reactive with individual MAPs, pools of 9-mer peptides, or single 9-mer peptides. NP: no peptide control.
IVS were obtained from two donor pairs stimulated with DC pulsed once with HERV-K protein. After 7 days (1-week stimulation), IVS cells were used for ELISPOT with 15-mer peptides (FIGS. 15A-B) or MAPs including MAP73, MAP75-76, MAP82-93, MAP 92-93, and MAP95-96 or 9 mer peptide pools (#1 to 5, #5 to 10, #1 to 10, #12 to 17, #18 to 22) or single peptides (#3, #18, and #4.11; FIG. 15C). Candidate epitopes (#4 and #11) were further identified using IVS generated from DC obtained from cancer patients stimulated with HERV-K antigen in this study.

Sequence	CD8 T epitope for HLA-A2 donors [1]	IFN-γ ELISPOT spots with individual peptide ([1]; T cell stimulated 3 times with peptide pool #12 to 22)	IFN-γ ELISPOT spots with individual peptide ([1]; T cell stimulated 4 times with peptide pool #12 to 22)	HERV-K specific T cell epitope (IFN-γ ELISPOT) [2]	IFN-γ ELISPOT spots with individual peptide ([1]; T cell stimulated 4 times with peptide pool #1 to 11)
IINLILILV [HERVK-18]	may be CD8 T epitopes	numerous spots	numerous spots	HERV-K specific T cell epitopes	–
YMLVVGNIV [HERVK-3]	may be CD8 T epitopes	–	–	HERV-K specific T cell epitopes	numerous spots

Reference: US20150250864A1, “ANTI-CANCER VACCINES” (Board of Regents, The University of Texas System, priority 2012, published 2015)
